The numbers were not newly measured in Sander's compilation of Henry's law constants (doi:10.1093/bja/45.3.282), which cites them from elsewhere.

This data set is described as follows: Henry solubility constant Hcp at 310 K (mol/(m3 Pa)). The conditions noted are these: reference: Steward et al. (1973); cited value.
Take `ClC=C(Cl)Cl` [trichloroethene]: the “Henry solubility constant Hcp at 310 K” value is 0.00066.
`FC(F)OC(Cl)C(F)(F)F` (centres undefined) [1-chloro-2,2,2-trifluoroethyl difluoromethyl ether]: the “Henry solubility constant Hcp at 310 K” value was 0.00024.
As to `C=COC=C` [divinyl ether], the “Henry solubility constant Hcp at 310 K” value is 0.00054.
In the case of `COC(F)(F)C(Cl)Cl` [2,2-dichloro-1,1-difluoro-1-methoxyethane], the “Henry solubility constant Hcp at 310 K” value is 0.0017.
Take `[Kr]` [krypton]: the “Henry solubility constant Hcp at 310 K” value is 2e-05.
Regarding `[N-]=[N+]=O` [dinitrogen monoxide], the “Henry solubility constant Hcp at 310 K” value was 0.00018.
Regarding `CCCl` [chloroethane], the “Henry solubility constant Hcp at 310 K” value is 0.00047.
In the case of `FC(F)OC(F)(F)C(F)Cl` (centres undefined) [2-chloro-1,1,2-trifluoroethyl difluoromethyl ether], the “Henry solubility constant Hcp at 310 K” value was 0.0003.
Consider `C1CC1` [cyclopropane], for which the “Henry solubility constant Hcp at 310 K” value was 8.1e-05.
For `C=C` [ethene], the “Henry solubility constant Hcp at 310 K” value is 3.5e-05.
Regarding `[Xe]` [xenon], the “Henry solubility constant Hcp at 310 K” value is 3.3e-05.
On to `C=COCC(F)(F)F` [(2,2,2-trifluoroethoxy)-ethene], for which the “Henry solubility constant Hcp at 310 K” value was 0.00033.
`CCOCC` [diethyl ether]: the “Henry solubility constant Hcp at 310 K” value was 0.005.
Turning to `FC(F)(F)C(Cl)Br` (centres undefined) [1-bromo-1-chloro-2,2,2-trifluoroethane], the “Henry solubility constant Hcp at 310 K” value was 0.00031.
